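Test compounds were applied to cells in 96-well plates for 48 hours at 5 doses. GI50: concentration for 50% inhibition of growth.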 Activity calls are given as the source filed them. Rule as the data show it: active = GI50 up to about 1.1 µM and inactive = higher.
Legend:
Test in all cases: NCI anticancer screen, dose series, 48 h
[1] = tested on: LXFL 529
[2] = tested on: MDA-MB-231
[3] = tested on: MDA-N
[4] = tested on: T47D
[5] = tested on: DU-145
[6] = tested on: MDA-MB-435
[7] = tested on: Hs-578T

Measured: GI50

CC1SC(c2ccccc2)N(Nc2c3ccccc3nc3ccccc23)C1=O (configuration not stated)
inactive: [1] 43.3 µM

CCCCN1C=CN2c3nc4cc(C)c(C)cc4n3C(C(=O)OC)=C(C(=O)OC)C12 (configuration not stated)
inactive: [1] > 100 µM

COC(=O)C1=C(OC(=O)/C(=C/c2ccc(Cl)cc2)c2ccc(Cl)cc2)C(C(=O)OC)[C@]2(O)[C@@H](C(=O)OC)[C@H]1C[C@@H](c1ccccc1)[C@@H]2C(=O)OC (some centres not stated)
inactive: [2] 50.6 µM | [3] > 100 µM | [4] > 100 µM | [5] > 100 µM | [6] > 100 µM

C/C=C/c1cc(=O)c([C@@H]2OC(=O)c3cc(OC)cc(OC)c32)co1 [VERMISTATIN]
inactive: [1] 24.5 µM

COc1cc(CCN(C)C)cc(OC)c1OC
inactive: [7] > 100 µM | [2] > 100 µM | [3] > 100 µM | [4] > 100 µM | [5] > 100 µM | [6] > 100 µM

CCCCCCCCCCCCCCCCCC(=O)OCC1OC(OC)C(NC(=O)N(CCCl)N=O)C(O)C1O (configuration not stated)
inactive: [1] 17.3 µM

CCOC(=O)C1=C(c2ccccc2)C12N(Cc1ccccc1)C(=O)C2(c1ccccc1)c1ccccc1 (configuration not stated)
inactive: [7] 36.9 µM | [2] 29.9 µM | [3] 25.5 µM | [4] 43.2 µM | [5] 75 µM | [6] 34.8 µM

O=C1C=CC[C@H]2O[C@@H](COC(=O)Cc3ccccc3)C[C@H]2O1
inactive: [7] 26.2 µM | [2] 63.7 µM | [3] 41 µM | [4] 58.1 µM | [5] 88.9 µM | [6] 40.5 µM

[O-][Cl+3]([O-])([O-])O.c1ccc(C2=NN2c2ccccc2)cc1
inactive: [2] > 100 µM | [3] 4.27 µM | [4] 7.13 µM | [5] 5.89 µM | [6] 2.83 µM
